From ChEMBL document CHEMBL4270498, “Targeting Eph/ephrin system in cancer therapy” (Eur J Med Chem, 2017)

Legend:
Ephrin type-A receptor 2 [1] = molecular target: T1, Ephrin type-A receptor 2 (Mus musculus, UniProt Q03145); assay: Binding affinity to histidine-tagged mouse EphA2 Fc fusion protein by SPR assay
Ephrin type-A receptor 2 [2] = molecular target: Ephrin type-A receptor 2 (Homo sapiens, UniProt P29317); assay: Binding affinity to EphA2 (unknown origin)
[3] = Half life in mouse at 30 mg/kg, iv; assay type: ADME, organism-based; conditions: in vivo
Ephrin type-A receptor 2 [4] = molecular target: T1, Ephrin type-A receptor 2; assay: Displacement of biotinylated ephrinA1-Fc from recombinant mouse EphA2 Fc chimera protein by ELISA
Ephrin type-B receptor 4 = molecular target: T2, Ephrin type-B receptor 4 (Homo sapiens, UniProt P54760); assay: Binding affinity to Fc-tagged EphB4 (unknown origin) assessed as reduction in ephrin-B2 binding by SPR assay
T2 sequence (P54760 whole entry): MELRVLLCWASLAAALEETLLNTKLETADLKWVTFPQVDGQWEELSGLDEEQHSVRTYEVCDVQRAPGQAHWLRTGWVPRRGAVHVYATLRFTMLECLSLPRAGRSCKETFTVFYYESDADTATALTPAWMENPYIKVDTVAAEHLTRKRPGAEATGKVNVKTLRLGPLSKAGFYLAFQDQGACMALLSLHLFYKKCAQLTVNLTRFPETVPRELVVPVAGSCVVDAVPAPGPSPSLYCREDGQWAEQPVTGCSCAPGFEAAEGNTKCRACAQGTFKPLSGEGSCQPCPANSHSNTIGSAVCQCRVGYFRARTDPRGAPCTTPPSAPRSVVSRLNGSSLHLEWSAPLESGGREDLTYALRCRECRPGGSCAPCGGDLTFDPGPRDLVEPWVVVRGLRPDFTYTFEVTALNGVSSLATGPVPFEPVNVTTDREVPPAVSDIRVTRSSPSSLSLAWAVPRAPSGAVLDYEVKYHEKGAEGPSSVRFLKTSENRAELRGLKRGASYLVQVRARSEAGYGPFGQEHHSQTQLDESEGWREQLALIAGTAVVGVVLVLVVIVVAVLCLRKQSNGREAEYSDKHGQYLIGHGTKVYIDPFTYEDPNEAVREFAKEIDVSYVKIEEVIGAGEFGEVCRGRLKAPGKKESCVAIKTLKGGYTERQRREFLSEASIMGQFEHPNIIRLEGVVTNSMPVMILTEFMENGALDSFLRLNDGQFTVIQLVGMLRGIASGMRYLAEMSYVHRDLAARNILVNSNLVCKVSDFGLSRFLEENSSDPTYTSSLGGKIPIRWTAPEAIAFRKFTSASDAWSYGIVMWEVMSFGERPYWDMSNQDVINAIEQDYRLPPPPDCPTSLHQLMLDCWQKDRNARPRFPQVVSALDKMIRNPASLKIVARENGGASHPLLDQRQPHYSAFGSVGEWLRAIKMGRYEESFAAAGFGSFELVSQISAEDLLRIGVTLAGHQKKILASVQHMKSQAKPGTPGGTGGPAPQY

T1 sequence (Q03145 whole entry, the tested form may be a part): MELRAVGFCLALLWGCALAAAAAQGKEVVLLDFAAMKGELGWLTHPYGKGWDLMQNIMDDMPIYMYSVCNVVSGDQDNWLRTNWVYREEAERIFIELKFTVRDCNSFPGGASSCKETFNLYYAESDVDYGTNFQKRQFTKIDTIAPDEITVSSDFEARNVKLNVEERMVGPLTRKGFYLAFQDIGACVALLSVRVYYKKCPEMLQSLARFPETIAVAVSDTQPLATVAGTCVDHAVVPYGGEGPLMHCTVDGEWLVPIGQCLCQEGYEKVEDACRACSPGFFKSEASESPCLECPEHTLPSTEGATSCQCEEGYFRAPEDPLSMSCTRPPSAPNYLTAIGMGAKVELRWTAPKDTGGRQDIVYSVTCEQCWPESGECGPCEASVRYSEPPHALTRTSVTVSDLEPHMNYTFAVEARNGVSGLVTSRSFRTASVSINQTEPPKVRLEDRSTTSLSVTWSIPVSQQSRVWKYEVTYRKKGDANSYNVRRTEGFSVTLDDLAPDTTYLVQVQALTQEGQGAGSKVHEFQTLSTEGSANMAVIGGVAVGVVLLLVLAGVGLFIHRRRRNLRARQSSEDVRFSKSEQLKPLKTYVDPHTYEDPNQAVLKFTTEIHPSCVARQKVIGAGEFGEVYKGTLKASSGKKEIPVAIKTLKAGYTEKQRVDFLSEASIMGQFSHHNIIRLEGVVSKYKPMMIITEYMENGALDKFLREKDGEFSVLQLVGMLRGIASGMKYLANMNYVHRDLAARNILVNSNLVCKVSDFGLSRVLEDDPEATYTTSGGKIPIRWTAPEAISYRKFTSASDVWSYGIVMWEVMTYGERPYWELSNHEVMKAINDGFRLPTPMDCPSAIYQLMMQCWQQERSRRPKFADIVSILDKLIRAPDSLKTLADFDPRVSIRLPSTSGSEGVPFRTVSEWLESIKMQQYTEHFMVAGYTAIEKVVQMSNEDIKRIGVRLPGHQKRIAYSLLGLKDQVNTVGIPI
Chain of Ephrin type-A receptor 2 (Homo sapiens, UniProt P29317) (P29317 whole entry): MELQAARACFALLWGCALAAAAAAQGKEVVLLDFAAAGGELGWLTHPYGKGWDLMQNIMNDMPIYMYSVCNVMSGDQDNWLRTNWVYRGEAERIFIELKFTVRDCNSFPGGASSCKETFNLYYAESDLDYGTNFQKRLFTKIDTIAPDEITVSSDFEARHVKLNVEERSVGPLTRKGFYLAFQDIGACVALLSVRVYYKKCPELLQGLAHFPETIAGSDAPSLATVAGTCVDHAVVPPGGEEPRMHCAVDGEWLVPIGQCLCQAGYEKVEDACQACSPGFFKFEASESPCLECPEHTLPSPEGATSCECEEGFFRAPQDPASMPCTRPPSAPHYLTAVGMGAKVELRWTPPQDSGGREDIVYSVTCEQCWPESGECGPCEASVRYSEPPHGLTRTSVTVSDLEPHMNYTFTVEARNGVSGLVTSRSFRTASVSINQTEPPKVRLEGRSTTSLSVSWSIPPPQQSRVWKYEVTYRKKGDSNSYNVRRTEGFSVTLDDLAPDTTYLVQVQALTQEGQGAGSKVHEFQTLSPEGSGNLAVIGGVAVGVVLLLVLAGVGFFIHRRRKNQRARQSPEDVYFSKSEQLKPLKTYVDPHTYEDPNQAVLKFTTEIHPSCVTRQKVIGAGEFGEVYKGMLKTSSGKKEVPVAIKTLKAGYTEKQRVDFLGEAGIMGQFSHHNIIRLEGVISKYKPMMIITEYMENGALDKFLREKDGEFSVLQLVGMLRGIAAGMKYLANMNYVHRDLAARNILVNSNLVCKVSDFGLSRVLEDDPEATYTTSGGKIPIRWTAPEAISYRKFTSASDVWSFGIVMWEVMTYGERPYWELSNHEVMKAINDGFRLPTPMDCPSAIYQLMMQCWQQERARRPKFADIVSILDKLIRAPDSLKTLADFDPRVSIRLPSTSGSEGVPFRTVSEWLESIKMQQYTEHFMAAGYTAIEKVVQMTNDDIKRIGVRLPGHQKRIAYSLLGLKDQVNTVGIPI

Which Kd (Ephrin type-A receptor 2 [1]) does the source give for `CC(C)C[C@H](NC(=O)[C@H](Cc1c[nH]c2ccccc12)NC(=O)[C@@H](N)CO)C(=O)N[C@@H](C)C(=O)N[C@@H](Cc1ccc(O)cc1)C(=O)N1CCC[C@H]1C(=O)NCC(=O)N[C@@H](C)C(=O)N[C@H](C(=O)N[C@@H](CO)C(=O)N[C@@H](Cc1ccc(O)cc1)C(=O)N[C@@H](CCCN=C(N)N)C(=O)O)C(C)C` here?
Its Kd is 700 nM.

With `C[C@H](CCC(=O)N[C@H](CC(=O)O)Cc1c[nH]c2ccccc12)[C@H]1CC[C@H]2[C@@H]3CC[C@@H]4CCCC[C@]4(C)[C@H]3CC[C@]12C` as the compound, how does the Ki (Ephrin type-A receptor 2 [2]) read?
The Ki was over 15000 nM.

For `CCCC[C@H](NC(=O)[C@@H]1CCCN1C(=O)[C@@H](NC(=O)[C@H](CO)NC(=O)[C@H](CC(=O)O)NC(=O)[C@@H]1CCCN1C(=O)[C@H](Cc1ccc(O)cc1)NC(=O)[C@H](C)NC(=O)[C@H](CO)NC(=O)COc1ccc(F)c(Cl)c1)C(C)C)C(=O)N[C@@H](CCO)C(=O)N[C@@H](CO)C(=O)N[C@@H](CCCCNC(=O)CCCc1cn(CCCCCOC(=O)COCC(=O)O[C@@H](C(=O)O[C@H]2C[C@@]3(O)[C@@H](OC(=O)c4ccccc4)[C@@H]4[C@]5(OC(C)=O)CO[C@@H]5C[C@H](O)[C@@]4(C)C(=O)[C@H](OC(C)=O)C(=C2C)C3(C)C)[C@@H](NC(=O)c2ccccc2)c2ccccc2)nn1)C(=O)O`, which half-life [3] is on record?
The half-life was over 2 h.

For `C[C@H](CCC(=O)O)[C@H]1CC[C@H]2[C@@H]3CC[C@@H]4C[C@H](O)CC[C@]4(C)[C@H]3CC[C@]12C` [LITHOCHOLIC ACID], which IC50 (Ephrin type-A receptor 2 [4]) is on record?
The IC50 was 57000 nM.

Which Kd (Ephrin type-B receptor 4) does the source give for H-TNYLFSPNGPIARAW-OH here?
The Kd was 2 nM.
